The assay concerns the target T1, core proteasome, post glutamyl peptide hydrolyzing (PGPH) activity (Homo sapiens, UniProt P25787+P60900).
T1 construct: Human housekeeping core (20S) proteasome purified from erythrocytes; purchased Boston Biochem, Inc. or Enzo Life Sciences, Inc; host or cells: human erythrocytes (natural source)
The assay is described as follows: PGPH peptidase activity of latent 20S proteasome (Z-LLE-AMC). The conditions noted are these: 100 μM Z-LLE-AMC, n = 3–4. It is filed as biochemical. As for the experimental part:
Human housekeeping core (20S) proteasome purified from erythrocytes was purchased from Boston Biochem, Inc. (Cambridge, MA) or from Enzo Life Sciences, Inc. (Farmingdale, NY). Multiple batches of the proteasomes were used and performed reproducibly. The stock proteasome was diluted to 0.2 mg/mL working solution in “dilution buffer” (50 mM Tris/HCl, pH 8, 20% glycerol). The following model peptide substrates, all releasing fluorescent 7-amino-4-methylcoumarin (AMC) reporter group after cleavage, were used: succinyl-LeuLeuValTyr-AMC (for the ChT-L peptidase; SucLLVY-AMC; Bachem Bioscience Inc., Philadelphia, PA), butoxycarbonyl-LeuArgArg-AMC (T-L; Bachem Bioscience Inc., Philadelphia, PA) and carbobenzoxy- LeuLeuGlu-AMC (PGPH; Enzo Life Sciences Inc., Farmingdale, NY). The substrates were used at concentration of 50 μM (ChT-L) or 100 μM (T-L, PGPH). […] After mixing, the plate was transferred to a Fluoroskan Ascent plate reader (Thermo Fisher Scientific Inc., Waltham, MA) for 1 h (37 °C), with fluorescence readouts once per minute. […] The reaction rates were calculated from a linear segment of kinetic curves constructed from measurements in 1-min intervals. Reaction rates were calculated using a linear fit performed with the Slope Analyser and Enzyme Kinetics applications launched within Origin Pro 2019 (OriginLab Corporation, Northampton, MA). […]

Entries after “also recorded” stand apart in the source; their conditions may differ.

Turning to `NCCCC[C@H](NC(=O)[C@H](CCCCN)NC(=O)[C@H](CCCCN)NC(=O)c1cc(NC(=O)[C@H](CCCCN)NC(=O)[C@H](CCCCN)NC(=O)[C@@H](N)CCCCN)cc(NC(=O)[C@H](CCCCN)NC(=O)[C@H](CCCCN)NC(=O)[C@@H](N)CCCCN)c1)C(=O)O` [(8)], the “Effect on PGPH activity (in words)” value is given as “weak inhibitory effects; also recorded: did not seem to significantly affect”.
For the compound `N=C(N)NCCC[C@H](NC(=O)CN)C(=O)N[C@@H](CCCCN)C(=O)N[C@@H](CCCCN)C(=O)N[C@@H](CCCNC(=N)N)C(=O)N[C@@H](CCCNC(=N)N)C(=O)N[C@@H](CCC(N)=O)C(=O)N1Cc2ccccc2C[C@H]1C(=O)N1[C@@H](C(=O)N[C@@H](CCCNC(=N)N)C(=O)N2CCC[C@H]2C(=O)N[C@@H](CO)C(=O)O)C[C@H]2CCCC[C@H]21` [(5)], the “Effect on PGPH activity (in words)” value is “weak inhibitory effects; also recorded: did not seem to significantly affect”.
